Test results reported in patent US20100179122A1 (priority 2005, published 2010).
Read-outs that look alike come from different tables or passages of the source.

How the values were obtained:
[1] = target: T1, mutant HIV reverse transcriptase (K103N mutation) (Human immunodeficiency virus type 1 group M subtype B, UniProt P04585, K690N); experiment: Analogous RT inhibition assay, K103N mutant; format: biochemical
T1 construct: mutations that occur in the reverse transcriptase segment of the pol gene; made in house
Procedure: (§1) 100 μL reaction mixtures were initiated with a combination of primer-template substrate (10 nM final concentration) and dNTPs (0.6 μM dNTPs, 0.75 μM [^3H]-dGTP). The heterodimeric nucleic acid substrate was generated by annealing the DNA primer pD500 (described in Shaw-Reid et al., J. Biol. Chem., 278: 2777-2780; obtained from Integrated DNA Technologies) to t500, a 500 nucleotide RNA template created by in vitro transcription (see Shaw-Reid et al., J. Biol. Chem., 278: 2777-2780). After 1 hour incubation at 37° C., reactions were quenched by 10 μl, streptavidin scintillation proximity assay beads (10 mg/mL, from Amersham Biosciences) in 0.5 M EDTA, pH 8. Microtiter plates were incubated an additional 10 minutes at 37° C. prior to quantification via Topcount (Packard).
(§2) Analogous assays were conducted substituting mutant HIV strains to determine the […] inhibition of compounds of the present invention against mutant HIV reverse transcriptase. In one strain the reverse transcriptase has the Y181C mutation and in the other strain the reverse transcriptase has the K103N mutation. The mutations were generated with the […] site-directed mutagenesis kit (Stratagene). […] The compounds set forth in the other Examples were not tested in the Y181C assay. […] The compounds set forth in the other Examples were not tested in the K103N assay.

[2] = tested on: acute HIV infection of T-lymphoid cells; experiment: Assay for inhibition of HIV replication (spread assay); format: cell-based; details: Human immunodeficiency virus 1; inhibition of acute HIV infection of T-lymphoid cells; read-out: IC95, spread assay
Procedure: An assay for the inhibition of acute HIV infection of T-lymphoid cells (alternatively referred to herein as the “spread assay”) was conducted in accordance with Vacca, J. P. et al., Proc. Natl. Acad. Sci. USA 1994, 91: 4096. […] The compounds set forth in the other Examples were not tested in the spread assay.

[3] = target: T2, mutant HIV reverse transcriptase (Y181C mutation) (Human immunodeficiency virus type 1 group M subtype B, UniProt P04585, Y768C); experiment: Analogous RT inhibition assay, Y181C mutant; format: biochemical
T2 construct: mutations that occur in the reverse transcriptase segment of the pol gene; made in house
Procedure: as §1, §2

[4] = reverse transcriptase with K103N mutation, tested up to 20 micromolar, read-out: IC50, K103N mutant assay
[5] = reverse transcriptase with Y181C mutation, tested up to 20 micromolar, read-out: IC50, Y181C mutant assay

Row | Structure (SMILES) | IC50 [1] | IC95 [2] | IC50 [3] | IC50 [1, 4] | IC50 [3, 5]
1 | O=C(Nc1ccccc1F)Nc1[nH]c2ccc(Cl)cc2c1S(=O)(=O)c1ccccc1 [Example 2, N-[5-chloro-3-(phenylsulfonyl)-1H-indol-2-yl]-N-(2-fluorophenyl)urea] | < 1000 nM | < 1 µM | – | – | –
2 | O=C(Nc1[nH]c2ccc(Cl)cc2c1S(=O)(=O)c1ccccc1)C1CC1 [Example 3, N-[5-Chloro-3-(phenylsulfonyl)-1H-indol-2-yl]cyclopropanecarboxamide] | < 1000 nM | < 1 µM | 1 to 20 µM | – | –
3 | CC(=O)OCC(=O)Nc1[nH]c2ccc(Cl)cc2c1S(=O)(=O)c1ccccc1 [Example 5, 2-{[5-chloro-3-(phenylsulfonyl)-1H-indol-2-yl]amino}-2-oxoethyl acetate] | < 1000 nM | < 1 µM | < 1 µM | – | –
4 | O=C(CCOc1ccccc1)Nc1[nH]c2ccc(Cl)cc2c1S(=O)(=O)c1ccccc1 [Example 8, N-[5-chloro-3-(phenylsulfonyl)-1H-indol-2-yl]-3-phenoxypropanamide] | > 20000 nM | < 1 µM | > 20 µM | – | –
5 | O=C(Nc1[nH]c2ccc(Cl)cc2c1S(=O)(=O)c1ccccc1)C1Cc2ccccc2O1 (stereo not drawn) [Example 10, N-[5-chloro-3-(phenylsulfonyl)-1H-indol-2-yl]-2,3-dihydro-1-benzofuran-2-carboxamide] | < 1000 nM | < 1 µM | < 1 µM | – | –
6 | O=C(Nc1[nH]c2ccc(Cl)cc2c1S(=O)(=O)c1ccccc1)C1COc2ccccc2O1 (stereo not drawn) [Example 11, N-[5-chloro-3-(phenylsulfonyl)-1H-indol-2-yl]-2,3-dihydro-1,4-benzodioxine-2-carboxamide] | < 1000 nM | < 1 µM | < 1 µM | – | –
7 | CC(C)C(=O)Nc1[nH]c2ccc(Cl)cc2c1S(=O)(=O)c1ccccc1 [Example 15, N-[5-chloro-3-(phenylsulfonyl)-1H-indol-2-yl]-2-methylpropanamide] | 1000 to 20000 nM | < 1 µM | 1 to 20 µM | – | –
8 | CCNCC(=O)Nc1[nH]c2ccc(Cl)cc2c1S(=O)(=O)c1ccccc1 [Example 21, N^1-[5-chloro-3-(phenylsulfonyl)-1H-indol-2-yl]-N^2-ethylglycinamide] | < 1000 nM | < 1 µM | < 1 µM | – | –
9 | CCC(C)C(=O)Nc1[nH]c2ccc(Cl)cc2c1S(=O)(=O)c1ccccc1 (stereo not drawn) [Example 26, N-[5-chloro-3-(phenylsulfonyl)-1H-indol-2-yl]-2-methylbutanamide] | 1000 to 20000 nM | < 1 µM | < 1 µM | – | –
10 | O=C(Nc1ccc(F)cc1)Nc1[nH]c2ccc(Cl)cc2c1S(=O)(=O)c1ccccc1 [Example 31, N-[5-chloro-3-(phenylsulfonyl)-1H-indol-2-yl]-N′-(4-fluorophenyl)urea] | > 20000 nM | < 1 µM | > 20 µM | – | –
11 | O=C(CN1CCC(c2ccncc2)CC1)Nc1[nH]c2ccc(Cl)cc2c1S(=O)(=O)c1ccccc1 [Example 37, N-[5-chloro-3-(phenylsulfonyl)-1H-indol-2-yl]-2-(4-pyridin-4-ylpiperidin-1-yl)acetamide] | > 20000 nM | – | > 20 µM | – | –
12 | O=C(CNCc1cscn1)Nc1[nH]c2ccc(Cl)cc2c1S(=O)(=O)c1ccccc1 [Example 38, N^1-[5-chloro-3-(phenylsulfonyl)-1H-indol-2-yl]-N^2-(1,3-thiazol-4-ylmethyl)glycinamide] | < 1000 nM | – | < 1 µM | – | –
13 | CO[C@@](C(=O)Nc1[nH]c2ccc(Cl)cc2c1S(=O)(=O)c1ccccc1)(c1ccccc1)C(F)(F)F [Example 39, (2R)-N-[5-chloro-3-(phenylsulfonyl)-1H-indol-2-yl]-3,3,3-trifluoro-2-methoxy-2-phenylpropanamide] | < 1000 nM | < 1 µM | < 1 µM | – | –
14 | O=C(NCc1cccc(F)c1)Nc1[nH]c2ccc(Br)cc2c1S(=O)(=O)N1CCCC1 [Example 70] | – | – | – | < 1000 nM | –
15 | O=C(NCc1cccc(Cl)c1)Nc1[nH]c2ccc(Br)cc2c1S(=O)(=O)N1CCCC1 [Example 71, N-[5-bromo-3-(pyrrolidin-1-ylsulfonyl)-1H-indol-2-yl]-N′-(3-chlorobenzyl)urea] | – | < 1 µM | 1 to 20 µM | < 1000 nM | –
16 | O=C(NCc1ccccc1)Nc1[nH]c2ccc(Br)cc2c1S(=O)(=O)N1CCCC1 [Example 72, N-benzyl-N′-[5-bromo-3-(pyrrolidin-1-ylsulfonyl)-1H-indol-2-yl]urea] | – | < 1 µM | < 1 µM | < 1000 nM | –

Row | Structure (SMILES) | IC50 [1] | IC95 [2] | IC50 [3] | IC50 [1, 4] | IC50 [3, 5]
17 | O=C(Nc1ccccc1)Nc1[nH]c2ccc(Br)cc2c1S(=O)(=O)N1CCCC1 [Example 73, N-[5-bromo-3-(pyrrolidin-1-ylsulfonyl)-1H-indo1-2-yl]-N′-phenylurea] | – | < 1 µM | – | < 1000 nM | –
18 | CC(C)NC(=O)Nc1[nH]c2ccc(Br)cc2c1S(=O)(=O)N1CCCC1 [Example 74, N-[5-bromo-3-(pyrrolidin-1-ylsulfonyl)-1H-indol-2-yl]-N′-isopropylurea] | – | – | – | < 1000 nM | –
19 | O=C(Nc1[nH]c2ccc(Br)cc2c1S(=O)(=O)N1CCCC1)NC1CCCC1 [Example 78, N-[5-bromo-3-(pyrrolidin-1-ylsulfonyl)-1H-indol-2-yl]-N′-cyclopentylurea] | – | – | > 20 µM | < 1000 nM | –
20 | O=C(NCc1ccccc1O)Nc1[nH]c2ccc(Br)cc2c1S(=O)(=O)N1CCCC1 [Example 79, N-[5-bromo-3-(pyrrolidin-1-ylsulfonyl)-1H-indol-2-yl]-N′-(2-hydroxybenzyl)urea] | – | – | > 20 µM | < 1000 nM | –
21 | O=C(NCc1ccccn1)Nc1[nH]c2ccc(Br)cc2c1S(=O)(=O)N1CCCC1 [Example 80, N-[5-bromo-3-(pyrrolidin-1-ylsulfonyl)-1H-indol-2-yl]-N′-(pyridin-2-ylmethyl)urea] | – | – | 1 to 20 µM | < 1000 nM | –
22 | O=C(NCc1cccnc1)Nc1[nH]c2ccc(Br)cc2c1S(=O)(=O)N1CCCC1 [Example 81, N-[5-bromo-3-(pyrrolidin-1-ylsulfonyl)-1H-indol-2-yl]-N′-(pyridin-3-ylmethyl)urea] | – | – | 1 to 20 µM | < 1000 nM | –
23 | O=C(NCc1cncs1)Nc1[nH]c2ccc(Br)cc2c1S(=O)(=O)N1CCCC1 [Example 83, N-[5-bromo-3-(pyrrolidin-1-ylsulfonyl)-1H-indol-2-yl]-N′-(1,3-thiazol-5-ylmethyl)urea] | – | – | 1 to 20 µM | < 1000 nM | –
24 | O=C(Nc1[nH]c2ccc(Br)cc2c1S(=O)(=O)N1CCCC1)N1CCCC1 [Example 84, N-[5-bromo-3-(pyrrolidin-1-ylsulfonyl)-1H-indol-2-yl]pyrrolidine-1-carboxamide] | – | – | – | < 1000 nM | > 20 µM
25 | O=C(NCCc1ccccc1)Nc1[nH]c2ccc(Br)cc2c1S(=O)(=O)N1CCCC1 [Example 85, N-[5-bromo-3-(pyrrolidin-1-ylsulfonyl)-1H-indol-2-yl]-N′-(2-phenylethyl)urea] | – | – | – | < 1000 nM | > 20 µM
26 | NC(=O)C1CCCN(C(=O)Nc2[nH]c3ccc(Br)cc3c2S(=O)(=O)N2CCCC2)C1 (stereo not drawn) [Example 87, N^1-[5-bromo-3-(pyrrolidin-1-ylsulfonyl)-1H-indol-2-yl]piperidine-1,3-dicarboxamide] | – | – | – | < 1000 nM | > 20 µM
27 | O=C(NCCc1ccccn1)Nc1[nH]c2ccc(Br)cc2c1S(=O)(=O)N1CCCC1 [Example 88, N-[5-bromo-3-(pyrrolidin-1-ylsulfonyl)-1H-indol-2-yl]-N′-(2-pyridin-2-ylethyl)urea] | 1000 to 20000 nM | – | – | – | > 20 µM
28 | CN1CCN(C(=O)Nc2[nH]c3ccc(Br)cc3c2S(=O)(=O)N2CCCC2)CC1 [Example 91, N-[5-bromo-3-(pyrrolidin-1-ylsulfonyl)-1H-indol-2-yl]-4-methylpiperazine-1-carboxamide] | 1000 to 20000 nM | – | – | – | > 20 µM
29 | CC(C)(C)CCNC(=O)Nc1[nH]c2ccc(Br)cc2c1S(=O)(=O)N1CCCC1 [Example 92, N-[5-bromo-3-(pyrrolidin-1-ylsulfonyl)-1H-indol-2-yl]-N′-(3,3-dimethylbutyl)urea] | > 20000 nM | – | – | – | > 20 µM
30 | O=C(NCCNc1ccccc1)Nc1[nH]c2ccc(Br)cc2c1S(=O)(=O)N1CCCC1 [Example 93, N-(2-anilinoethyl)-N′-[5-bromo-3-(pyrrolidin-1-ylsulfonyl)-1H-indol-2-yl]urea] | 1000 to 20000 nM | – | – | – | > 20 µM
31 | CN(C)CCCNC(=O)Nc1[nH]c2ccc(Br)cc2c1S(=O)(=O)N1CCCC1 [Example 94, N-[5-bromo-3-(pyrrolidin-1-ylsulfonyl)-1H-indol-2-yl]-N′-[3-(dimethylamino)propyl]urea] | < 1000 nM | – | 1 to 20 µM | – | –
